Measurements published in article PMC5865165, “Mechanism of action of the third generation benzopyrans and evaluation of their broad anti-cancer activity in vitro and in vivo” (Scientific Reports, 2018).

How the values were obtained:
Test in all cases: cells
Parameters in all cases: species or system melanoma cell lines (3D spheres); 3D melanoma tumour sphere viability, CellTiter-Glo 3D luminescence, 7-point dose response
[1] = tested on: MM329; details: 3D tumour spheres, 72 h
Method: (§1) Dose responses to TRX-E-009-1 and TRX-E-002-1 were performed using 3D tumour sphere cultures of 21 melanoma cell lines. Cells were dissociated and seeded[17] at previously optimized densities into 384-well Ultra-Low Attachment plates (#3827, Corning). Cells were treated the following day with a 7 point 3-fold dilution series, 5.4 µM to 7.4 nM using a Sciclone ALH 3000 [compound left out] handling robot. Changes in cell viability were assayed at 72 hours using the Cell Titre Glo 3D assay (#G9683, Promega), luminescence reads were performed on a SynergyMx Plate Reader (BioTek Instruments). Luminescence values were normalized to the DMSO/vehicle control prior to comparisons. […] A second independent panel of melanoma cell lines grown as tumour spheres was assessed for sensitivity to both TRX-E-009-1 and TRX-E-002-1. […] As found with the Oncopanel melanoma cell lines, a subset (one third) of the cell lines were sensitive to killing by these BP compounds, with <20% viability at the highest concentration tested. These lines will be referred to as sensitive. The cell lines with >25% viability at the highest dose appear comparatively resistant to killing by the compounds and are referred to as resistant. Subsequent experiments utilized A2058, D04, SKMEL13, and A375 as representative of sensitive cell lines, while A15, SKMEL28, C013, and C002 were used to assess the effects of TRX-E-009-1 and TRX-E-002-1 on resistant lines.

[2] = tested on: C013; details: 3D tumour spheres, 72 h
Method: as §1

[3] = tested on: C052; details: 3D tumour spheres, 72 h
Method: as §1

[4] = tested on: C054; details: 3D tumour spheres, 72 h
Method: as §1

[5] = tested on: C002; details: 3D tumour spheres, 72 h
Method: as §1

[6] = tested on: HT144; details: Homo sapiens, HT-144; 3D tumour spheres, 72 h
Method: as §1

[7] = tested on: D04; details: 3D tumour spheres, 72 h
Method: as §1

[8] = tested on: MM370; details: 3D tumour spheres, 72 h
Method: as §1

[9] = tested on: A375; details: Homo sapiens, A-375; 3D tumour spheres, 72 h
Method: as §1

[10] = tested on: D28; details: 3D tumour spheres, 72 h
Method: as §1

[11] = tested on: C045; details: 3D tumour spheres, 72 h
Method: as §1

[12] = tested on: A15; details: 3D tumour spheres, 72 h
Method: as §1

[13] = tested on: BL; details: 3D tumour spheres, 72 h
Method: as §1

[14] = tested on: SKMEL13; details: 3D tumour spheres, 72 h
Method: as §1

[15] = tested on: MM603; details: 3D tumour spheres, 72 h
Method: as §1

[16] = tested on: MM415; details: 3D tumour spheres, 72 h
Method: as §1

[17] = tested on: SKMEL28; details: Homo sapiens, SK-MEL-28; 3D tumour spheres, 72 h
Method: as §1

[18] = tested on: D25; details: 3D tumour spheres, 72 h
Method: as §1

[19] = tested on: MM96L; details: Homo sapiens, MM96L; 3D tumour spheres, 72 h
Method: as §1

[20] = tested on: D20; details: 3D tumour spheres, 72 h
Method: as §1

[21] = tested on: A2058; details: Homo sapiens, A2058; 3D tumour spheres, 72 h
Method: as §1

`COc1cc([C@@H]2COc3c(ccc(O)c3C)[C@@H]2c2ccc(O)c(F)c2)cc(OC)c1O` (racemic) [TRX-E-009-1] was tested. Which IC50 [1] did it give?
The IC50 was 178 nM.

And the IC50 [2]?
The IC50 was 318 nM.

What about the IC50 [3] of the same compound?
The IC50 was 292 nM.

And the IC50 [4]?
Its IC50 is 857 nM.

And the IC50 [5]?
Its IC50 is 977 nM.

What about the IC50 [6] of the same compound?
Its IC50 is 233 nM.

What about the IC50 [7] of the same compound?
The IC50 was 253 nM.

What about the IC50 [8] of the same compound?
Its IC50 is 290 nM.

And the IC50 [9]?
The IC50 was 321 nM.

What about the IC50 [10] of the same compound?
Its IC50 is 787 nM.

What about the IC50 [11] of the same compound?
The IC50 was 461 nM.

What about the IC50 [12] of the same compound?
The IC50 was 489 nM.

And the IC50 [13]?
The IC50 was 340 nM.

What about the IC50 [14] of the same compound?
Its IC50 is 244 nM.

And the IC50 [15]?
Its IC50 is 284 nM.

What about the IC50 [16] of the same compound?
The IC50 was 323 nM.

What about the IC50 [17] of the same compound?
The IC50 was 4580 nM.

What about the IC50 [18] of the same compound?
Its IC50 is 5020 nM.

What about the IC50 [19] of the same compound?
The IC50 was 281 nM.

And the IC50 [20]?
Its IC50 is 1110 nM.

And the IC50 [21]?
Its IC50 is 292 nM.
